Values of other authors in article PMC4191920 (Journal of molecular biology, 2014).

Tested on: fibril formation
Conditions: at pH 7.4

[Nα-methyl-β-Ala26]Aβ42
effect on fibril formation: inhibit fibril formation
